Tests used:
[1] = tested on: HepG2 cells; assay: in vitro
Text: (§1) These studies included analysis of lactic acid production, mtDNA content and determination of changes in morphology (e.g., loss of cristae, matrix dissolution and swelling, and lipid droplet formation) of mitochondrial ultrastructure.

[2] = in vitro; conditions: human, hepg2 cells
Text: as §1

[3] = in vitro; conditions: human, bone marrow cfu-gm
[4] = in vitro; conditions: human, bone marrow bfu-e

**Q.** Which “Lipid Droplet Formation” value [1] does the source give for `Cc1cn([C@H]2C[C@H](N=[N+]=[N-])[C@@H](CO)O2)c(=O)[nH]c1=O` [ZDV, zidovudine] here?
**A.** negative

**Q.** And the “increase of lactic acid production compared to vehicle control” value ([1]; human)?
**A.** 100%

**Q.** And the activity [2]?
**A.** 239 ± 34%

**Q.** What about the activity at 336 h [2] of the same compound?
**A.** 119%

**Q.** What about the IC50 [3] of the same compound?
**A.** 1.8 µM

**Q.** What about the IC50 [4] of the same compound?
**A.** 0.7 µM

From patent EP1296995B1, “3'-PRODRUGS OF 2'-DEOXY-BETA-L-NUCLEOSIDES” (priority 2000, dated 2001)
